Laboratory results published in the supplement of paper PMC10307832.

Tests used:
Experiment in all cases: relative viability (nuclei count vs DMSO), 5 days (fraction); higher = more cells survive
EMC-BAC-2 = system: EMC-BAC-2
How it was run: (§1)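 Lung cancer cell lines were seeded in 1536-well plates and dosed by pin tool the next day, with either a single drug or a fixed anchor-drug dose combined with five library-drug doses (not always all listed) spaced in √10 steps. Five days later, one step fixed the cells and stained their nuclei (final 0.05% Triton X-100, 1% formaldehyde, 1 ug/ml Hoechst), and nuclei were counted on 4× images. Relative viability is the nuclei count in treated wells divided by the count in vehicle wells, and each value is the median of duplicate plates.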

EPLC-272H = system: EPLC-272H
How it was run: as §1

H3255 = system: H3255
How it was run: as §1

HOP-62 = system: HOP-62
How it was run: as §1

LCLC-97TM1 = system: LCLC-97TM1
How it was run: as §1

LXF-289 = system: LXF-289
How it was run: as §1

NCI-H1563 = system: NCI-H1563
How it was run: as §1

NCI-H1650 = system: NCI-H1650
How it was run: as §1

NCI-H1915 = system: NCI-H1915
How it was run: as §1

NCI-H1993 = system: NCI-H1993
How it was run: as §1

NCI-H2009 = system: NCI-H2009
How it was run: as §1

NCI-H2023 = conditions: first compound 0.005 µM
How it was run: as §1

## CC1(C)CCC(c2ccc(Cl)cc2)=C(CN2CCN(c3ccc(C(=O)NS(=O)(=O)c4ccc(N[C@H](CCN5CCOCC5)CSc5ccccc5)c(S(=O)(=O)C(F)(F)F)c4)cc3)CC2)C1 [Navitoclax] + Cc1nc(Nc2ncc(C(=O)Nc3c(C)cccc3Cl)s2)cc(N2CCN(CCO)CC2)n1 [Dasatinib] (partner 0.075 µM)
EMC-BAC-2; first compound 0.005 µM
  relative viability: 0.29
EMC-BAC-2; first compound 0.01581 µM
  relative viability: 0.354
EMC-BAC-2; first compound 0.05 µM
  relative viability: 0.312
EMC-BAC-2; first compound 0.1581 µM
  relative viability: 0.267
EMC-BAC-2; first compound 0.5 µM
  relative viability: 0.288
EPLC-272H; first compound 0.005 µM
  relative viability: 0.372
EPLC-272H; first compound 0.05 µM
  relative viability: 0.359
EPLC-272H; first compound 0.1581 µM
  relative viability: 0.361
EPLC-272H; first compound 0.5 µM
  relative viability: 0.345
H3255; first compound 0.005 µM
  relative viability: 0.344
H3255; first compound 0.01581 µM
  relative viability: 0.424
H3255; first compound 0.05 µM
  relative viability: 0.346
H3255; first compound 0.1581 µM
  relative viability: 0.31
H3255; first compound 0.5 µM
  relative viability: 0.204
HOP-62; first compound 0.005 µM
  relative viability: 0.593
HOP-62; first compound 0.01581 µM
  relative viability: 0.752
HOP-62; first compound 0.05 µM
  relative viability: 0.623
HOP-62; first compound 0.1581 µM
  relative viability: 0.719
HOP-62; first compound 0.5 µM
  relative viability: 0.678
LCLC-97TM1; first compound 0.005 µM
  relative viability: 0.822
LCLC-97TM1; first compound 0.01581 µM
  relative viability: 0.939
LCLC-97TM1; first compound 0.05 µM
  relative viability: 0.648
LCLC-97TM1; first compound 0.1581 µM
  relative viability: 0.825
LCLC-97TM1; first compound 0.5 µM
  relative viability: 0.826
LXF-289; first compound 0.005 µM
  relative viability: 0.239
LXF-289; first compound 0.01581 µM
  relative viability: 0.308
LXF-289; first compound 0.05 µM
  relative viability: 0.193
LXF-289; first compound 0.1581 µM
  relative viability: 0.256
LXF-289; first compound 0.5 µM
  relative viability: 0.201
NCI-H1563; first compound 0.005 µM
  relative viability: 0.464
NCI-H1563; first compound 0.01581 µM
  relative viability: 0.458
NCI-H1563; first compound 0.05 µM
  relative viability: 0.46
NCI-H1563; first compound 0.1581 µM
  relative viability: 0.434
NCI-H1563; first compound 0.5 µM
  relative viability: 0.474
NCI-H1650; first compound 0.005 µM
  relative viability: 0.28
NCI-H1650; first compound 0.01581 µM
  relative viability: 0.38
NCI-H1650; first compound 0.05 µM
  relative viability: 0.314
NCI-H1650; first compound 0.1581 µM
  relative viability: 0.277
NCI-H1650; first compound 0.5 µM
  relative viability: 0.219
NCI-H1915; first compound 0.005 µM
  relative viability: 0.323
NCI-H1915; first compound 0.01581 µM
  relative viability: 0.333
NCI-H1915; first compound 0.05 µM
  relative viability: 0.335
NCI-H1915; first compound 0.1581 µM
  relative viability: 0.309
NCI-H1915; first compound 0.5 µM
  relative viability: 0.354
NCI-H1993; first compound 0.005 µM
  relative viability: 0.674
NCI-H1993; first compound 0.01581 µM
  relative viability: 0.689
NCI-H1993; first compound 0.05 µM
  relative viability: 0.467
NCI-H1993; first compound 0.1581 µM
  relative viability: 0.625
NCI-H1993; first compound 0.5 µM
  relative viability: 0.643
NCI-H2009; first compound 0.005 µM
  relative viability: 0.232
NCI-H2009; first compound 0.01581 µM
  relative viability: 0.383
NCI-H2009; first compound 0.05 µM
  relative viability: 0.264
NCI-H2009; first compound 0.1581 µM
  relative viability: 0.336
NCI-H2009; first compound 0.5 µM
  relative viability: 0.319
NCI-H2023
  relative viability: 0.488
